Assay results reported in PubChem BioAssay (NCI).
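Test compounds were applied to cells in 96-well plates for 48 hours at 5 doses. At the TGI there is no net growth.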

Experiments:
Test in all cases: growth of human tumour cells (NCI), 48 h
786-0 renal = system: 786-0 renal
A498 renal = system: A498 renal
A549 NSCLC = system: A549 NSCLC
ACHN renal = system: ACHN renal
BT-549 breast = system: BT-549 breast
CAKI-1 renal = system: CAKI-1 renal
CCRF-CEM leukemia = system: CCRF-CEM leukemia
COLO 205 colon = system: COLO 205 colon
DU-145 prostate = system: DU-145 prostate
EKVX NSCLC = system: EKVX NSCLC
HCC-2998 colon = system: HCC-2998 colon
HCT-116 colon = system: HCT-116 colon
HCT-15 colon = system: HCT-15 colon
HL-60(TB) leukemia = system: HL-60(TB) leukemia
HOP-62 NSCLC = system: HOP-62 NSCLC
HOP-92 NSCLC = system: HOP-92 NSCLC
HS 578T breast = system: HS 578T breast
HT29 colon = system: HT29 colon
IGROV1 ovarian = system: IGROV1 ovarian
K-562 leukemia = system: K-562 leukemia
KM12 colon = system: KM12 colon
LOX IMVI melanoma = system: LOX IMVI melanoma
M14 melanoma = system: M14 melanoma
MALME-3M melanoma = system: MALME-3M melanoma
MCF7 breast = system: MCF7 breast
MDA-MB-435 = system: MDA-MB-435
MDA-N = system: MDA-N
MOLT-4 leukemia = system: MOLT-4 leukemia
NCI-H226 lung = system: NCI-H226 lung
NCI-H23 lung = system: NCI-H23 lung
NCI-H460 lung = system: NCI-H460 lung
NCI-H522 lung = system: NCI-H522 lung
NCI/ADR-RES ovarian = system: NCI/ADR-RES ovarian
OVCAR-3 ovarian = system: OVCAR-3 ovarian
OVCAR-5 ovarian = system: OVCAR-5 ovarian
OVCAR-8 ovarian = system: OVCAR-8 ovarian
PC-3 prostate = system: PC-3 prostate
RXF 393 renal = system: RXF 393 renal
SF-268 CNS = system: SF-268 CNS
SF-295 CNS = system: SF-295 CNS
SF-539 CNS = system: SF-539 CNS
SK-MEL-2 melanoma = system: SK-MEL-2 melanoma
SK-MEL-28 melanoma = system: SK-MEL-28 melanoma
SK-MEL-5 melanoma = system: SK-MEL-5 melanoma
SK-OV-3 ovarian = system: SK-OV-3 ovarian
SN12C renal = system: SN12C renal
SNB-19 CNS = system: SNB-19 CNS
SNB-75 CNS = system: SNB-75 CNS
SW-620 colon = system: SW-620 colon
T-47D breast = system: T-47D breast
UACC-257 melanoma = system: UACC-257 melanoma
UACC-62 melanoma = system: UACC-62 melanoma
UO-31 renal = system: UO-31 renal
OVCAR-4 ovarian = system: OVCAR-4 ovarian
RPMI-8226 leukemia = system: RPMI-8226 leukemia
TK-10 renal = system: TK-10 renal
U251 CNS = system: U251 CNS

## COc1cc(/C=N/NC(=O)c2c(Cl)c(Cl)c(Cl)c(Cl)c2-c2nc3ccccc3[nH]2)ccc1O
786-0 renal
  TGI: > 100 µM
A498 renal
  TGI: 61.4 µM
A549 NSCLC
  TGI: > 100 µM
ACHN renal
  TGI: 62.5 µM
BT-549 breast
  TGI: 67.2 µM
CAKI-1 renal
  TGI: 49.8 µM
CCRF-CEM leukemia
  TGI: > 100 µM
COLO 205 colon
  TGI: 73 µM
DU-145 prostate
  TGI: 56.5 µM
EKVX NSCLC
  TGI: 82.6 µM
HCC-2998 colon
  TGI: 33.5 µM
HCT-116 colon
  TGI: 43.6 µM
HCT-15 colon
  TGI: 79.2 µM
HL-60(TB) leukemia
  TGI: 53.2 µM
HOP-62 NSCLC
  TGI: 75.8 µM
HOP-92 NSCLC
  TGI: 33.4 µM
HS 578T breast
  TGI: > 100 µM
HT29 colon
  TGI: 62.9 µM
IGROV1 ovarian
  TGI: > 100 µM
K-562 leukemia
  TGI: > 100 µM
KM12 colon
  TGI: 74.9 µM
LOX IMVI melanoma
  TGI: 61.1 µM
M14 melanoma
  TGI: 90.9 µM
MALME-3M melanoma
  TGI: 52.9 µM
MCF7 breast
  TGI: 44.7 µM
MDA-MB-435
  TGI: 91.7 µM
MDA-N
  TGI: 75.7 µM
MOLT-4 leukemia
  TGI: > 100 µM
NCI-H226 lung
  TGI: 87.6 µM
NCI-H23 lung
  TGI: 55.3 µM
NCI-H460 lung
  TGI: 57 µM
NCI-H522 lung
  TGI: > 100 µM
NCI/ADR-RES ovarian
  TGI: > 100 µM
OVCAR-3 ovarian
  TGI: > 100 µM
OVCAR-5 ovarian
  TGI: 86.7 µM
OVCAR-8 ovarian
  TGI: > 100 µM
PC-3 prostate
  TGI: > 100 µM
RXF 393 renal
  TGI: 46.4 µM
SF-268 CNS
  TGI: > 100 µM
SF-295 CNS
  TGI: > 100 µM
SF-539 CNS
  TGI: > 100 µM
SK-MEL-2 melanoma
  TGI: 41.1 µM
SK-MEL-28 melanoma
  TGI: > 100 µM
SK-MEL-5 melanoma
  TGI: 34.2 µM
SK-OV-3 ovarian
  TGI: > 100 µM
SN12C renal
  TGI: > 100 µM
SNB-19 CNS
  TGI: > 100 µM
SNB-75 CNS
  TGI: 60.5 µM
SW-620 colon
  TGI: > 100 µM
T-47D breast
  TGI: 15.9 µM
UACC-257 melanoma
  TGI: 87.6 µM
UACC-62 melanoma
  TGI: 32.4 µM
UO-31 renal
  TGI: > 100 µM

## COc1ccc(N=NC(=O)NC(CC(C)C)C(=O)NC(CC(C)C)C(=O)O)cc1 (stereo not drawn)
786-0 renal
  TGI: > 100 µM
A498 renal
  TGI: > 100 µM
A549 NSCLC
  TGI: > 100 µM
ACHN renal
  TGI: 80.2 µM
BT-549 breast
  TGI: > 100 µM
CAKI-1 renal
  TGI: > 100 µM
CCRF-CEM leukemia
  TGI: > 100 µM
COLO 205 colon
  TGI: 49.5 µM
DU-145 prostate
  TGI: > 100 µM
EKVX NSCLC
  TGI: > 100 µM
HCC-2998 colon
  TGI: > 100 µM
HCT-116 colon
  TGI: > 100 µM
HCT-15 colon
  TGI: > 100 µM
HL-60(TB) leukemia
  TGI: > 100 µM
HOP-62 NSCLC
  TGI: > 100 µM
HOP-92 NSCLC
  TGI: > 100 µM
HS 578T breast
  TGI: > 100 µM
HT29 colon
  TGI: > 100 µM
IGROV1 ovarian
  TGI: > 100 µM
K-562 leukemia
  TGI: 80.3 µM
KM12 colon
  TGI: > 100 µM
LOX IMVI melanoma
  TGI: > 100 µM
M14 melanoma
  TGI: > 100 µM
MALME-3M melanoma
  TGI: > 100 µM
MCF7 breast
  TGI: > 100 µM
MDA-MB-435
  TGI: > 100 µM
MDA-N
  TGI: > 100 µM
MOLT-4 leukemia
  TGI: > 100 µM
NCI-H226 lung
  TGI: > 100 µM
NCI-H23 lung
  TGI: > 100 µM
NCI-H460 lung
  TGI: > 100 µM
NCI-H522 lung
  TGI: > 100 µM
NCI/ADR-RES ovarian
  TGI: > 100 µM
OVCAR-3 ovarian
  TGI: > 100 µM
OVCAR-4 ovarian
  TGI: > 100 µM
OVCAR-5 ovarian
  TGI: > 100 µM
OVCAR-8 ovarian
  TGI: > 100 µM
PC-3 prostate
  TGI: > 100 µM
RPMI-8226 leukemia
  TGI: > 100 µM
RXF 393 renal
  TGI: > 100 µM
SF-268 CNS
  TGI: > 100 µM
SF-295 CNS
  TGI: > 100 µM
SF-539 CNS
  TGI: 57.6 µM
SK-MEL-28 melanoma
  TGI: > 100 µM
SK-MEL-5 melanoma
  TGI: > 100 µM
SN12C renal
  TGI: > 100 µM
SNB-19 CNS
  TGI: > 100 µM
SNB-75 CNS
  TGI: > 100 µM
SW-620 colon
  TGI: > 100 µM
T-47D breast
  TGI: > 100 µM
TK-10 renal
  TGI: > 100 µM
U251 CNS
  TGI: > 100 µM
UACC-257 melanoma
  TGI: > 100 µM
UACC-62 melanoma
  TGI: > 100 µM
UO-31 renal
  TGI: > 100 µM
